Laboratory results as given in US8754115B2, “Fungicidal pyrazoles” (E I du Pont de Nemours and Company, priority 2010, dated 2014).
Marks after values point to notes of the source that are not given here.

Tests used:
Type in all cases: in vivo
[1] = system: Blumeria graminis f. sp. tritici; test: Test F: preventive spray on wheat seedlings, visual disease rating (wheat powdery mildew)
In short: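 Visual ratings (0–100% control relative to controls) taken 8 days after spore-dust inoculation at 20° C. Inoculation followed one day after a protective run-off spray of 200 ppm suspension, equal to 800 g/ha, or 40 ppm where flagged, made in acetone/water with 250 ppm surfactant.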

[2] = system: Puccinia recondite f. sp. tritici; test: Test E1: curative spray on wheat seedlings after inoculation, visual disease rating (wheat leaf rust)
In short: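 Seedlings inoculated with rust spores, held 24 h in saturated atmosphere at 20 °C, then 2 days at 20 °C before curative spray to run-off with test suspension (200 ppm ≈ 800 g/ha, or 40 ppm where marked) in acetone/water with surfactant. Visual disease control rating (0–100) after 6 further days at 20 °C.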

[3] = system: Puccinia recondite f. sp. tritici; test: Test E2: preventive spray on wheat seedlings, visual disease rating (wheat leaf rust)
In short: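 Wheat seedlings were inoculated with leaf rust spores one day after a run-off spray of compound at 200 ppm (asterisk: 40 ppm) in 50/50 acetone/water with 250 ppm Trem 014. Incubation: 24 h saturated humidity, 20 °C; then 7 days growth chamber, 20 °C. Disease control scored visually, 0–100% relative to controls.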

Septoria tritici = test: Test D: preventive spray on wheat seedlings, visual disease rating (wheat leaf blotch)
In short: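 Protection was scored visually on a 0–100% disease-control scale versus controls, 19 days after plants were moved to 20 °C following 48 h of 24 °C saturated humidity. Spore inoculation with S. tritici took place one day after a preventive run-off spray, usually at 200 ppm (800 g/ha) and at 40 ppm where asterisked.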

Septoria nodorum = test: Test C: preventive spray on wheat seedlings, visual disease rating (Septoria glume blotch)
In short: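 Wheat seedlings were sprayed to run-off with 200 ppm suspension (40 ppm where marked; 200 ppm ≈ 800 g/ha) in acetone/water with 250 ppm Trem 014, then inoculated next day with Septoria nodorum spores. Incubation was 48 h saturated at 24 °C, then 6 days at 20 °C; visual rating 0–100% disease control versus controls.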

Alternaria solani = test: Test B: preventive spray on tomato seedlings, visual disease rating (tomato early blight)
In short: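 Compounds were suspended at 200 ppm (asterisked values at 40 ppm) in acetone/water with surfactant and sprayed to run-off on tomato seedlings, 200 ppm being equivalent to 800 g/ha. A. solani spores were inoculated the next day, with 48 h at 27 °C in saturated air, then 5 days at 20 °C. Disease control was rated visually, 0–100% relative to controls.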

Botrytis cinerea = test: Test A: preventive spray on tomato seedlings, visual disease rating (tomato Botrytis)
In short: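 Preventive test: Botrytis cinerea spores applied one day after run-off spraying at 200 ppm (≈800 g/ha), or 40 ppm where asterisked. Incubation 48 h at 20 °C in saturated air, then 3 days at 24 °C; disease scored visually from 0 (no control) to 100 (complete control) versus untreated.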

[4] = no asterisk: standard test suspension, not 40 ppm
[5] = no asterisk: standard test suspension, not 40 ppm, 100 = 100% disease control, 0 = none
[6] = asterisk: 40 ppm test suspension

| Compound | Test F rating (% disease control) [1, 4] [%] | Test E1 rating (% disease control) [2, 4] [%] | Test E2 rating (% disease control) [3, 4] [%] | Test D rating (% disease control) (Septoria tritici; [4]) [%] | Test C rating (% disease control) (Septoria nodorum; [4]) [%] | Test B rating (% disease control) (Alternaria solani; [4]) [%] | Test A rating (% disease control) (Botrytis cinerea; [5]) [%] | Test F rating (% disease control) [1, 6] | Test E1 rating (% disease control) [2, 6] | Test E2 rating (% disease control) [3, 6] | Test D rating (% disease control) (Septoria tritici; [6]) | Test C rating (% disease control) (Septoria nodorum; [6]) | Test B rating (% disease control) (Alternaria solani; [6]) | Test A rating (% disease control) (Botrytis cinerea; [6]) |
| --- | --- | --- | --- | --- | --- | --- | --- | --- | --- | --- | --- | --- | --- | --- |
| Cc1nn(C)c(-c2c(F)cc(F)cc2F)c1C(O)c1ccc(F)cc1Cl (stereo not drawn) [compound 61] | 100 | 99 | 100 | 100 | 99 | 100 | 100 | – | – | – | – | – | – | – |
| Cc1nn(C)c(-c2ccc(F)cc2Cl)c1C(O)c1c(F)cc(F)cc1F (stereo not drawn) [compound 19] | 100 | 100 | 100 | 100 | 100 | 100 | 99 | – | – | – | – | – | – | – |
| COC(c1ccc(F)cc1Cl)c1c(C)nn(C)c1-c1c(F)cccc1Cl (stereo not drawn) [Compound 67] | 100 | 28 | 90 | 100 | 0 | 9 | 57 | – | – | – | – | – | – | – |
| Cc1nn(C)c(-c2c(F)cc(F)cc2F)c1C(=O)c1ccc(F)cc1F [compound 60] | 99 | 0 | 55 | 0 | 0 | 0 | 75 | – | – | – | – | – | – | – |
| Cc1nn(C)c(-c2c(F)cc(F)cc2F)c1C(O)c1ccc(F)cc1F (stereo not drawn) [compound 66] | 99 | 55 | 100 | 100 | 95 | 100 | 100 | – | – | – | – | – | – | – |
| Cc1nn(C)c(-c2ccc(F)cc2Cl)c1Nc1ccc(Cl)cc1Cl [compound 44] | – | – | – | – | – | – | – | 100* % | 0* % | 99* % | 99* % | 0* % | 0* % | 99* % |
| Cc1nn(C)c(-c2ccccc2Br)c1C(O)c1ccc(F)cc1Cl (single isomer, unassigned) [compound 80] | 99 | 99 | 99 | 100 | 69 | 97 | 99 | – | – | – | – | – | – | – |
| COc1cc(F)c(C(O)c2c(C)nn(C)c2-c2ccc(F)cc2Cl)c(F)c1 (stereo not drawn) [compound 20] | – | – | – | – | – | – | – | 92* % | 99* % | 99* % | 100* % | 0* % | 97* % | 97* % |
| Cc1nn(C)c(-c2c(F)cccc2Cl)c1C(O)c1c(Cl)cc(Cl)cc1Cl (stereo not drawn) [compound 55] | 95 | 99 | 100 | 100 | 78 | 97 | 99 | – | – | – | – | – | – | – |
| Cc1nn(C)c(-c2ccc(F)cc2Cl)c1Nc1ccc(F)cc1Br [compound 58] | – | – | – | – | – | – | – | 97* % | 0* % | 98* % | 100* % | 0* % | 8* % | 100* % |
| Cc1nn(C)c(-c2c(F)cccc2F)c1Nc1ccc(F)cc1Cl [compound 50] | 98 | 0 | 79 | 100 | 0 | 93 | 99 | – | – | – | – | – | – | – |
| COc1cc(F)c(C(O)c2c(C)nn(C)c2-c2c(F)cccc2F)c(F)c1 (stereo not drawn) [compound 16] | 93 | 54 | 100 | 100 | 0 | 99 | 100 | – | – | – | – | – | – | – |
| Cc1nn(C)c(-c2c(F)cccc2Cl)c1C(O)c1c(F)cc(F)cc1F (stereo not drawn) [compound 34] | 100 | 84 | 99 | 100 | 100 | 99 | 100 | – | – | – | – | – | – | – |
| 4-(2-chloro-4-fluorophenoxy)-5-(2,4-difluorophenyl)-1,3-dimethyl-1H-pyrazole [Compound 5] | 100 | 99 | 100 | 100 | 100 | 100 | 100 | – | – | – | – | – | – | – |
| 3-bromo-5-(2-chloro-4-fluorophenyl)-α-(2,4-difluorophenyl)-1-methyl-1H-pyrazole-4-methanol [Compound 30] | 99 | 100 | 100 | 100 | 0 | 0 | 100 | – | – | – | – | – | – | – |
| COc1ccc(-c2c(Oc3ccc(F)cc3Cl)c(C)nn2C)c(Cl)c1 [compound 31] | 96 | 0 | 92 | 100 | 0 | 0 | 100 | – | – | – | – | – | – | – |
| α-(2,4-difluorophenyl)-5-(2,4-difluorophenyl)-1,3-dimethyl-1H-pyrazole-4-methanol [Compound 72] | 99 | 0 | 40 | 99 | 0 | 0 | 100 | – | – | – | – | – | – | – |
| Cc1nn(C)c(-c2ccc(F)cc2Cl)c1C(O)c1ccc(C#N)cc1F (stereo not drawn) [compound 25] | 96 | 9 | 100 | 100 | 89 | 99 | 100 | – | – | – | – | – | – | – |
| Cc1nn(C)c(-c2c(F)cccc2F)c1Nc1ccc(F)cc1F [compound 64] | 97 | 0 | 55 | 48 | 0 | 0 | 99 | – | – | – | – | – | – | – |
| 4-[(2-chloro-4-fluorophenyl)hydroxymethyl]-5-(2,6-difluorophenyl)-1-methyl-1H-pyrazole-3-carbonitrile [Compound 53] | 96 | 91 | 97 | 95 | 0 | 0 | 100 | – | – | – | – | – | – | – |
| 4-[(4-chlorophenyl)thio]-5-(2,6-difluorophenyl)-1,3-dimethyl-1H-pyrazole [Compound 56] | 100 | 0 | 99 | 100 | 0 | 59 | 100 | – | – | – | – | – | – | – |
